One data set has as its system P. falciparum strain 3D7. Briefly: In vitro parasite reduction ratio. Particulars: 10-fold IC50; 28 days recovery in drug-free medium. Format: cell-based, Plasmodium falciparum.
Another data set in a line: Plasma stability. Format: in vitro ADME, human.
Data set [1] can be described thus: Plasma protein binding, standard equilibrium dialysis assay. Format: in vitro ADME. (In equilibrium dialysis free small molecules cross a membrane that holds back macromolecules.)
A further data set deals with HeLa cells. Particulars: read-out: HeLa IC50 (n1; n2); previously published; cited from earlier work.
The next data set relates to HEK293 cells. Particulars: read-out: HEK293 IC50 (n1; n2); previously published; cited from earlier work.
The subject of data set [2] is Plasmodium berghei. Particulars: previously published, cited from earlier work.
Another data set deals with Pf NF54. Briefly: 72 h [3H]hypoxanthine incorporation assay. Format: cell-based. Particulars: Plasmodium falciparum, NF54, 72 h.
The subject of data set [3] is chloroquine-sensitive and chloroquine-resistant P. falciparum strains. Briefly: Initial antiplasmodial in vitro assessment. Format: cell-based. Particulars: Plasmodium falciparum, read-out: IC50 (range over strains).
The subject of another data set is P. falciparum Dd2 Polδ. The experiment in a line: Single-step resistance selection assay. Format: cell-based, Plasmodium falciparum.
The next data set has as its system P. falciparum isolates. The experiment in a line: Ex vivo growth inhibition assay of clinical isolates. Format: cell-based. Particulars: Plasmodium falciparum.
A further data set concerns RF12 (PH-1263-C). The experiment in a line: microbe, parasite or virus in culture. Format: cell-based. Particulars: Plasmodium falciparum, 72 h, read-out: IC50, RF12 (PH-1263-C).
Data set [4] can be described thus: Chemical stability in aqueous solution. Format: physicochemical. Particulars: phosphate buffer pH 7.4, room temperature, over 24 h, n = 3.
The nature of data set [5]: Microsomal binding, equilibrium dialysis. Format: in vitro ADME. Particulars: human, human liver microsomes, microsomal binding (fraction bound), 1 μM in 0.5 mg/mL HLMs.
Data set [6] can be described thus: Snapshot pharmacokinetics. Particulars: P. berghei mice, single oral administration of 3, 10 and 30 mg/kg. Format: in vivo.
Data set [7] is described as follows: Plasma protein binding, dilution method.
In data set [8] the test system is Plasmodium berghei. The experiment in a line: Standard four-day Peters test in P. berghei-infected mice. Particulars: for cured: parasite-free mice on day 30.
A short description of data set [9]: Calculation of hepatic clearance and hepatic extraction ratio. Particulars: calculated from in vitro assays.
A further data set deals with Pf Dd2. The experiment in a line: Antiplasmodial in vitro activity, HRP2 ELISA. Format: cell-based. Particulars: Plasmodium falciparum, DD2, read-out: Pf Dd2 IC50 ± SD. Background: In an ELISA, binding on a coated surface is turned into a signal by an enzyme label.
The conditions of data set [10]: cited from earlier work.
The conditions of data set [11]: cited from earlier work. The source holds these as a separate data set.

Each structure is given as a SMILES string. Read-outs that look alike come from different tables or passages of the source. Marks after values point to notes of the source that are not given here. Bounds are passed on as bounds.

Broadly, the fraction unbound is free concentration divided by total concentration. Low values mean extensive binding, high ones weak binding. What is called IC50 is the concentration at which inhibition is half-maximal. In the case of `COc1ccc(/N=C(\N)CC(O)c2cc3c(F)cc(F)cc3c3cc(C(F)(F)F)ccc23)cc1` (centres unmarked) [1 (TKK129)], the “exposure time reducing the number of viable parasites to baseline” value (from here on “exposure time reducing the number”) in the data set with P. falciparum strain 3D7 is on record as not above 24 h. In addition, the plasma stability in “Plasma stability” (at 37 °C, time without decrease) is 24 h at 37 °C. The same compound displayed a fraction unbound at 24 h, 25 ng/mL in [1] of less than 0.01. Also, the IC50 with HeLa cells is 46100 nM; in the data set on HEK293 cells it was 36800 nM. For the same compound, in the data set on Plasmodium berghei [2] (oral 4 × 3 mg/kg), the MSD entry is “euthanized”. Also, the cured was 0/3 with Plasmodium berghei [2] (oral 4 × 3 mg/kg), 0/3 in the data set with Plasmodium berghei [2] (oral 4 × 10 mg/kg), 1/3 in the data set with Plasmodium berghei [2] (oral 4 × 30 mg/kg) and 2/3 with Plasmodium berghei [2] (oral 4 × 50 mg/kg).

As a reminder, the half-life is how long it takes for the measured level to halve. Lower therefore signals fast loss. With `Cl.N=C(CC(O)c1cc2c(F)cc(F)cc2c2cc(C(F)(F)F)ccc12)Nc1ccc(F)cc1` (centres unmarked) [2 (TKK130), (Z)-3-(1,3-Difluoro-6-(trifluoromethyl)phenanthrene-9-yl)-N′-(4-fluorophenyl)-3-hydroxypropanimidamid Hydrochlorid], the IC50 is 12 nM in the data set with Pf NF54 (read-out: IC50, NF54); 2 to 12 nM in data set [3]; 25.1 nM in the data set with P. falciparum isolates (read-out: max IC50); 1.4 nM in the data set with P. falciparum isolates (read-out: min IC50); 4 nM with RF12 (PH-1263-C). Further, the “exposure time reducing the number” value in the data set with P. falciparum strain 3D7 is on record as not above 24 h. Also, the “day on which treated cultures were clear” value in the data set with P. falciparum Dd2 Polδ (9 nM (3-fold IC50), inocula 2 × 10^7 and 2 × 10^9) was 4 days. Further, in the data set on P. falciparum Dd2 Polδ (9 nM, inocula 2 × 10^7 and 2 × 10^9, 60 days of recovery time), the “parasite growth after selection” value is “no subsequent parasite growth could be observed”. In [4], this compound yielded a chemical stability of more than 90%. In the data set “Plasma stability” (human, plasma), this compound had a half-life at 25 ng/mL of 67 h. In data set [5], this compound had an unbound share (fraction unbound) at 24 h, 1 μM of 0.026. In addition, in data set [6], the “time at which maximum concentration was reached” value is 4 h. Further, in data set [7] (plasma), the unbound share (fraction unbound) at 24 h, 25 ng/mL was 0.004. Moreover, the “signs of toxicity during the in vivo studies” value in the data set on Plasmodium berghei [8] (mice, oral dosing) was “no obvious signs of toxicity”. Also, the cured in the data set with Plasmodium berghei [8] (oral 4 × 3 mg/kg) is given as 0/3; in the data set with Plasmodium berghei [8] (oral 4 × 10 mg/kg), 1/3; in the data set with Plasmodium berghei [8] (oral 4 × 30 mg/kg) it was 3/3; in the data set with Plasmodium berghei [8] (oral 4 × 50 mg/kg) it was 3/3. Moreover, the hepatic extraction ratio in data set [9] was 0.17. Moreover, the hepatic clearance in [9] (hepatic blood flow 1500 mL/min) is recorded as 0.25 L/min.

Take `C[C@@H]1CC[C@H]2[C@@H](C)C(=O)O[C@@H]3O[C@@]4(C)CC[C@@H]1[C@]32OO4` [AS, Artemisinin, reference compound]: the cured with Plasmodium berghei [8] (oral 4 × 30 mg/kg) is on record as 0/10.

Regarding `CCN(CC)CCCC(C)Nc1ccnc2cc(Cl)ccc12` (centres unmarked) [CQ, Chloroquine], the IC50 in the data set on Pf Dd2 is 240 ± 130 nM; in the data set with Pf NF54 (read-out: IC50, NF54), 11 nM; in the data set on Pf NF54 (read-out: Pf NF54 IC50 ± SD), 12 ± 1 nM. The cured in the data set on Plasmodium berghei [8] (oral 4 × 30 mg/kg) was 0/10.

For `Cc1cc(Nc2ccc(S(F)(F)(F)(F)F)cc2)n2nc(C(C)(F)F)nc2n1` [DSM265, reference compound], the “day of recrudescence of parasites” value in the data set with P. falciparum Dd2 Polδ (12 nM (3-fold IC50), inoculum 2 × 10^7 per flask, all three replicate flasks) came out at 16 days.

`CCCCN(CCCC)CCC(O)c1cc2c(Cl)cc(Cl)cc2c2cc(C(F)(F)F)ccc12` (centres unmarked) [Hf, Halofantrine]: the “microsomal stability (60 min), Clint” value in [10] is “Clint = 26.9 μL/min/mg^d”. The plasma protein binding in [11] (plasma) is >99^d %.

`CCCCN(CCCC)CC(O)c1cc(Cl)cc2c1-c1ccc(Cl)cc1/C2=C/c1ccc(Cl)cc1` (centres unmarked) [LUM, Lumefantrine]: the “microsomal stability (60 min), Clint” value in [10] was “Clint = <7 μL/min/mg^d”. In data set [11], the plasma protein binding is >99^d %. For the same compound, the cured in the data set with Plasmodium berghei [8] (oral 4 × 30 mg/kg) is 3/3.

With `O=C1C(O)=C([C@H]2CC[C@H](c3ccc(Cl)cc3)CC2)C(=O)c2ccccc21` [atovaquone, reference compound], in the data set on P. falciparum strain 3D7, the “exposure time reducing the number” value is 120 h.

As for `CCC(C)n1ncn(-c2ccc(N3CCN(c4ccc(OCC5COC(Cn6cncn6)(c6ccc(Cl)cc6Cl)O5)cc4)CC3)cc2)c1=O` (centres unmarked) [itraconazole, reference compound], the fraction unbound at 24 h, 25 ng/mL in data set [7] (plasma diluted 1:10 or 1:20 in 0.9% saline) is 0.006.

With `CCc1nc(N)nc(N)c1-c1ccc(Cl)cc1` [pyrimethamine, reference compound], in the data set with P. falciparum strain 3D7, the “exposure time reducing the number” value worked out at 72 h.

The record behind these values is PMC12992107 (Journal of medicinal chemistry, 2024).
